How the values were obtained:
[1] = molecular target: Protein kinase C (PKC); experiment: In vitro for inhibitory activity against protein kinase C from rat brain
[2] = molecular target: cAMP-dependent protein kinase catalytic subunit alpha (Bos taurus, UniProt P00517); experiment: In vitro for inhibitory activity against cAMP-dependent protein kinase from bovine heart (A-kinase)
[3] = molecular target: T1, cGMP-dependent protein kinase 1 (Bos taurus, UniProt P00516); experiment: In vitro for inhibitory activity against cGMP-dependent protein kinase from bovine lung (G-kinase)
T1 sequence (P00516 whole entry): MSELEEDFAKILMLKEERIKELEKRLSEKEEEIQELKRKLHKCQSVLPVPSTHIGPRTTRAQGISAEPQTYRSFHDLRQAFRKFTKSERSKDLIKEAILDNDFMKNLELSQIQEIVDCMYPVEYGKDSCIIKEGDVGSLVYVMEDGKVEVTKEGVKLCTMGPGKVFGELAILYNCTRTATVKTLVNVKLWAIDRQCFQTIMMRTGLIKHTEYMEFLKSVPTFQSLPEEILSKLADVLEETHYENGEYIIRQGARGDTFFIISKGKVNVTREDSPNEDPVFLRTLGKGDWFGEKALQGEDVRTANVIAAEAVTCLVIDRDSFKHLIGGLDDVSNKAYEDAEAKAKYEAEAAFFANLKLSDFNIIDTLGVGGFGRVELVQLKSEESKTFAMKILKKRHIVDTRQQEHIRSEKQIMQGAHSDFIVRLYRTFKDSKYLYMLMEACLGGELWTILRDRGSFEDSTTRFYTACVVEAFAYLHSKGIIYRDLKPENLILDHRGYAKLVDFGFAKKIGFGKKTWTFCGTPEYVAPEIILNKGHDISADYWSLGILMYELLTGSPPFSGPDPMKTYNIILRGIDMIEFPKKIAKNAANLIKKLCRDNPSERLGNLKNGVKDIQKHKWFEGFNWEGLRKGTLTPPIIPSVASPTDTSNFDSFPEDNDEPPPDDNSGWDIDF

[4] = molecular target: Myosin light chain kinase, smooth muscle (Gallus gallus, UniProt P11799); experiment: In vitro for inhibitory activity against myosin light-chain kinase from chicken gizzard (M-kinase)
[5] = tested on: Splenocyte; experiment: In vitro for inhibitory activity against tyrosine specific protein kinase from murine spleen cells (T-kinase); format: functional, cell-based; conditions: Mus musculus

Myosin light chain kinase, smooth muscle, sequence (P11799 whole entry): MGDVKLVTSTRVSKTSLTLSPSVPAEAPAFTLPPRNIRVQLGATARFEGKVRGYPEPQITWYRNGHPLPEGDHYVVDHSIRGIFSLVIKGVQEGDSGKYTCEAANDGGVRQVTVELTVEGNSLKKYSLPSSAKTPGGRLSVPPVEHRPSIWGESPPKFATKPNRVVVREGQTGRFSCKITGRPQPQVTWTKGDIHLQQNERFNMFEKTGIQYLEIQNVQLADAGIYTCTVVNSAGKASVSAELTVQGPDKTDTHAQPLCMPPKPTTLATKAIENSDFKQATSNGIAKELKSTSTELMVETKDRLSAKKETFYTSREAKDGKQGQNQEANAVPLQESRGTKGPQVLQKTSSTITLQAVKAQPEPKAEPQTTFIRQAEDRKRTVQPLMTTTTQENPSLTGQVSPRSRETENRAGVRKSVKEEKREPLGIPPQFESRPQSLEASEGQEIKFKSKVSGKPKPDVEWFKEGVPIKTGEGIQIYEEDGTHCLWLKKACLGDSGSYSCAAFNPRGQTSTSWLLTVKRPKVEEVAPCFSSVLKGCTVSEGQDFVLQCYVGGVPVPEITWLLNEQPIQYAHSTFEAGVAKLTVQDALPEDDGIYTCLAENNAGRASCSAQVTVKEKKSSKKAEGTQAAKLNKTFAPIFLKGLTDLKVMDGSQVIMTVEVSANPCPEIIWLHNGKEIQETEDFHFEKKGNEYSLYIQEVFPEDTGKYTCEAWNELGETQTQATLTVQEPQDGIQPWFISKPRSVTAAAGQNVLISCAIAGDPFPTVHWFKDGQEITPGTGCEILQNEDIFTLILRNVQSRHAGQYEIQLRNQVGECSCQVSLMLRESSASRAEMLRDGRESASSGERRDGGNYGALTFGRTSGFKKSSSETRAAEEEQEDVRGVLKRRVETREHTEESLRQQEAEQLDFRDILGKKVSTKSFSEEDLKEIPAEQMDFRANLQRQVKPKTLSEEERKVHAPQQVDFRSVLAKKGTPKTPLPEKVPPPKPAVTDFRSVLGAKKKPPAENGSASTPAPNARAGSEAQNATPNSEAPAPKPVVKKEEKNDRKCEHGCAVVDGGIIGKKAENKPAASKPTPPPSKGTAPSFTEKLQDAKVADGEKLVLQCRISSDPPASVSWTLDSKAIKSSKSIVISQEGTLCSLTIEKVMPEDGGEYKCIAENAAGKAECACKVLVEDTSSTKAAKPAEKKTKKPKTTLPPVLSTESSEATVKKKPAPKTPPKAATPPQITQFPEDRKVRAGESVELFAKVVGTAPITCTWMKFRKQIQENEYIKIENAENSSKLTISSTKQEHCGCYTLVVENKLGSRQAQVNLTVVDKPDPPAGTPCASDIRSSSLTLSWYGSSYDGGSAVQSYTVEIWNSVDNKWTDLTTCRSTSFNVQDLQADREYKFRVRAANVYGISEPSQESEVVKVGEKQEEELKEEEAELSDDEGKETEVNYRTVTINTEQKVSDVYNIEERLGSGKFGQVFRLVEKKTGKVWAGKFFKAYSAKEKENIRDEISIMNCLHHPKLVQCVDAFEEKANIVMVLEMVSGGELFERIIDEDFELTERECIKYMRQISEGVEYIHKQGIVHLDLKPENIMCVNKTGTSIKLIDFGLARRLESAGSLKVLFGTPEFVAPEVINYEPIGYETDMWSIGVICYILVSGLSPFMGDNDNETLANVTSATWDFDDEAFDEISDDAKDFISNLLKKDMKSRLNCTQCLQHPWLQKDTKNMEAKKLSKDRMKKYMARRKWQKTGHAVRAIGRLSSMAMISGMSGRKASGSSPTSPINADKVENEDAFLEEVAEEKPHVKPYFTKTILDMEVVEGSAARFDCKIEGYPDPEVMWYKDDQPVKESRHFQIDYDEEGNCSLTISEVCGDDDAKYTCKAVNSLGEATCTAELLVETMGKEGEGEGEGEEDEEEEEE

SMILES | IC50 [1] | IC50 [2] | IC50 [3] | IC50 [4] | IC50 [5]
N#CCCn1c2ccccc2c2c3c(c4c5ccccc5[nH]c4c21)C(=O)NC3 | 0.075 µM | > 10 µM | 320 nM | 500 nM | 
Cn1c2ccccc2c2c3c(c4c5ccccc5n(C)c4c21)C(=O)NC3 | 0.45 µM | > 100 µM | 5500 nM | 5800 nM | 
Cn1c2ccccc2c2c3c(c4c5ccccc5[nH]c4c21)C(=O)NC3 | 0.52 µM | > 10 µM | 400 nM | 1100 nM | 
CCCn1c2ccccc2c2c3c(c4c5ccccc5n(C)c4c21)C(=O)NC3 | 0.1 µM | > 30 µM | 5100 nM | 11000 nM | > 10 µM
Cn1c2ccccc2c2c3c(c4c5ccccc5n(CCC#N)c4c21)CNC3=O [GO-6976] |  | > 100 µM |  |  | > 10 µM
CN[C@@H]1C[C@H]2O[C@@](C)([C@@H]1OC)n1c3ccccc3c3c4c(c5c6ccccc6n2c5c31)C(=O)NC4 [STAUROSPORINE] |  |  |  |  | 0.4 µM
O=C1NCc2c1c1c3ccccc3[nH]c1c1[nH]c3ccccc3c21 [STAUROSPORINONE] | 0.68 µM | > 10 µM | 650 nM | 2800 nM | 

Now from value to compound:

IC50 [1] | IC50 [2] | IC50 [3] | IC50 [4] | IC50 [5] | SMILES
0.099 µM | 4.8 µM | 280 nM | 390 nM |  | O=C1NCc2c1c1c3ccccc3[nH]c1c1c2c2ccccc2n1CC(O)CO (configuration not stated)
8.1 µM |  |  |  |  | CCCn1c2ccccc2c2c3c(c4c5ccccc5n(CCC)c4c21)C(=O)NC3
3.5 µM |  |  |  |  | CC(C)=CCn1c2ccccc2c2c3c(c4c5ccccc5[nH]c4c21)C(=O)NC3
0.2 µM | > 10 µM | 700 nM | 1200 nM |  | CCn1c2ccccc2c2c3c(c4c5ccccc5n(CC)c4c21)C(=O)NC3
0.032 µM | 2.4 µM | 710 nM | 440 nM | > 10 µM | Cn1c2ccccc2c2c3c(c4c5ccccc5n(CC(F)F)c4c21)CNC3=O
0.027 µM | 6.3 µM | 1300 nM | 1600 nM | > 10 µM | CCn1c2ccccc2c2c3c(c4c5ccccc5n(CCC#N)c4c21)CNC3=O
0.59 µM | > 100 µM | 21000 nM | 1800 nM |  | O=C(O)CCn1c2ccccc2c2c3c(c4c5ccccc5[nH]c4c21)C(=O)NC3
0.11 µM |  |  | 82 nM |  | NC(=O)CCn1c2ccccc2c2c3c(c4c5ccccc5[nH]c4c21)C(=O)NC3
0.025 µM |  |  | 450 nM |  | Cn1c2ccccc2c2c3c(c4c5ccccc5n(CCCN=[N+]=[N-])c4c21)CNC3=O
> 30 µM | > 30 µM | > 30000 nM | > 10000 nM | > 10 µM | CN1Cc2c(c3c4ccccc4n(C)c3c3c2c2ccccc2n3CCC#N)C1=O

Reference: ChEMBL document CHEMBL1151572, “Non-glycosidic/non-aminoalkyl-substituted indolocarbazoles as inhibitors of protein kinase C” (Bioorg Med Chem Lett, 1993)
